Source: US20030157146A1, “Stimulation of the immune system with polydextrose” (priority 2002, published 2003)

Assays:
biogenic amines = biogenic amines from caecal digesta of rats (HPLC, dansyl derivatives); type: in vivo, Wistar rats; settings: rat caecal digesta, Example 3
Protocol: (§1) Four week old male Wistar rats, divided into a control group and three test groups, consisting of 12 rats in each group, were held at a controlled temperature (27+2° C.) and 12:12 hrs light cycle. The animals had free access to food and water. The animals were weighed once a week and their weight gain was calculated. The control group was fed four weeks with a control (basal) diet and the test group was fed four weeks with the PDX-Polyol-diet, which consisted the control (basal) diet supplemented by an immunostimulating amount of polydextrose, and polyol as described in more detail below.
The control diet was the same diet as defined in Example 1. and the PDX-Polyol-diet was the same as defined in Example 2.
The digesta samples from caecum and colon were divided into pools (3 animals per pool) for the analysis of biogenic amines. The samples were stored in −20° C. until analysed. PH was measured from the caecum in situ.
Biogenic amines were determined from caecal digesta samples. […] The derivatives were separated on a C18 reversed phase column using mixture of ammonium acetate and acetonitrile as eluent, and detected with fluorescence detector.
(§2) The in vivo test of Example 2 and the in vitro fermentation of Example 3 were repeated and the level of tyramine was measured.

[1] = laxative effect in the test animals; set-up: species or system Wistar rats; settings: in vivo
Protocol: as §1, with “(27±2°” for “(27+2°”
as §2

human fecal samples = test: 24 h batch fermentation with human fecal samples: production of SCFA; type: cell-based; settings: 1% of each substance, 37° C., pH 6.9, anaerobic
Protocol: The test was based on a 24 h fermentation experiment performed with human fecal samples. Fecal samples were incubated in 24-hour batch cultures at 37° C. at pH 6.9 under anaerobic conditions containing a buffer medium (mineral salt, trace elements, vitamines). The medium was supplemented with 10% extract of caecal digesta from pig. Polydextrose, polyols and their combinations were added at the level of 1% each into the test cultures.

Compound	amount of tyramine compared to a control diet (biogenic amines)	laxative effect [1]	2-metbutyric acid, production of SCFA (%) after 24 h fermentation (human fecal samples) [%]	Acetic acid, production of SCFA (%) after 24 h fermentation (human fecal samples) [%]	Butyric acid, production of SCFA (%) after 24 h fermentation (human fecal samples) [%]	Isobutyric acid, production of SCFA (%) after 24 h fermentation (human fecal samples) [%]	Isovaleric acid, production of SCFA (%) after 24 h fermentation (human fecal samples) [%]	Propionic acid, production of SCFA (%) after 24 h fermentation (human fecal samples) [%]	Total SCFA after 24 h fermentation (human fecal samples) [mmol/L]	Valeric acid, production of SCFA (%) after 24 h fermentation (human fecal samples) [%]
OC[C@@H](O)[C@@H](O[C@@H]1O[C@H](CO)[C@H](O)[C@H](O)[C@H]1O)[C@H](O)[C@@H](O)CO [Lactitol, lactitol]	reduced	laxative effect	0.2	66.2	31.1	0.4	0.2	9.3	153.6	0.9
OC[C@@H](O)[C@@H](O[C@H]1O[C@H](CO)[C@@H](O)[C@H](O)[C@H]1O)[C@H](O)[C@@H](O)CO [Maltitol, maltitol]	–	–	0.2	57.9	21.3	0.4	0.2	12.1	157.0	1.2
OC[C@@H](O)[C@@H](O)[C@H](O)[C@@H](O)CO [Sorbitol, sorbitol]	–	–	0.2	55.2	38.6	0.5	0.3	11.4	122.4	1.4
OC[C@@H](O)[C@H](O)[C@@H](O)CO [Xylitol, xylitol]	–	–	0.3	45.8	27.9	0.6	0.3	12.6	191.6	1.9
isomalt	–	–	0.2	64.0	–	0.4	0.2	12.8	158.6	1.2
